Values after ≈ are worked out from the molar mass of the structure shown.
Tests used:
Assay type in all cases: functional
Pasteurella multocida [1] = assay: Antibacterial activity against Pasteurella multocida AL435 after 24 hrs by broth dilution method
Pasteurella multocida [2] = assay: Antibacterial activity against TolC deficient Pasteurella multocida pm0527 after 24 hrs by broth dilution method
Pasteurella multocida [3] = assay: Antibacterial activity against Pasteurella multocida pm0527 after 24 hrs by broth dilution method
Pasteurella multocida [4] = assay: Ratio of MIC for Pasteurella multocida AL435 to MIC for TolC deficient Pasteurella multocida pm0527
Pasteurella multocida [5] = assay: Antibacterial activity against TolC deficient Pasteurella multocida pm1980 after 24 hrs by broth dilution method
Pasteurella multocida [6] = assay: Antibacterial activity against Pasteurella multocida pm1980 after 24 hrs by broth dilution method
Pasteurella multocida [7] = assay: Ratio of MIC for Pasteurella multocida AL435 to MIC for TolC deficient Pasteurella multocida pm1980

| Compound | MIC (Pasteurella multocida [1]) [µg/mL] | MIC (Pasteurella multocida [2]) [µg/mL] | MIC (Pasteurella multocida [3]) [µg/mL] | Ratio (Pasteurella multocida [4]) | MIC (Pasteurella multocida [5]) [µg/mL] | MIC (Pasteurella multocida [6]) [µg/mL] | Ratio (Pasteurella multocida [7]) | MIC (Pasteurella multocida [1]; AL435, 24 h) [µg/mL] | MIC (Pasteurella multocida [2]; pm0527, 24 h) [µg/mL] | MIC (Pasteurella multocida [3]; pm0527, 24 h) [µg/mL] | MIC (Pasteurella multocida [5]; pm1980, 24 h) [µg/mL] | MIC (Pasteurella multocida [6]; pm1980, 24 h) [µg/mL] |
| --- | --- | --- | --- | --- | --- | --- | --- | --- | --- | --- | --- | --- |
| SPIRAMYCIN | 25 | 12.5 | 25 | 2 | 25 | 25 | 1 | – | – | – | – | – |
| GENTAMICIN | 20 | 5 | 20 | 4 | 40 | 40 | 0.5 | – | – | – | – | – |
| CO[C@@H]1[C@@H](OC(N)=O)[C@@H](O)[C@H](Oc2ccc3c(O)c(NC(=O)c4ccc(O)c(CC=C(C)C)c4)c(=O)oc3c2C)OC1(C)C [NOVOBIOCIN] | – | – | – | 16 | – | – | 2 | 40 (≈ 65.3 µM) | 2.5 (≈ 4.08 µM) | 40 (≈ 65.3 µM) | 20 (≈ 32.6 µM) | 40 (≈ 65.3 µM) |
| COc1cc(Cc2cnc(N)nc2N)cc(OC)c1OC [TRIMETHOPRIM] | – | – | – | 32 | – | – | 4 | 8 (≈ 27.6 µM) | 0.25 (≈ 0.861 µM) | 0.5 (≈ 1.72 µM) | 2 (≈ 6.89 µM) | 1 (≈ 3.44 µM) |
| POLYMYXIN B | 12.5 | 3.12 | 6.25 | 4 | 12.5 | 6.25 | 1 | – | – | – | – | – |
| C[C@H](CCC(=O)O)[C@H]1CC[C@H]2[C@@H]3CC[C@@H]4C[C@H](O)CC[C@]4(C)[C@H]3C[C@H](O)[C@]12C [DEOXYCHOLIC ACID] | – | – | – | 1 | – | – | 1 | 625 (≈ 1590 µM) | 625 (≈ 1590 µM) | 312 (≈ 796 µM) | 625 (≈ 1590 µM) | 625 (≈ 1590 µM) |
| CN[C@H](CC(C)C)C(=O)N[C@H]1C(=O)N[C@@H](CC(N)=O)C(=O)N[C@H]2C(=O)N[C@H]3C(=O)N[C@H](C(=O)N[C@H](C(=O)O)c4cc(O)cc(O)c4-c4cc3ccc4O)[C@H](O)c3ccc(c(Cl)c3)Oc3cc2cc(c3O[C@@H]2O[C@H](CO)[C@@H](O)[C@H](O)[C@H]2O[C@H]2C[C@](C)(N)[C@H](O)[C@H](C)O2)Oc2ccc(cc2Cl)[C@H]1O [VANCOMYCIN] | – | – | – | 8 | – | – | 4 | 1000 (≈ 690 µM) | 125 (≈ 86.3 µM) | 250 (≈ 173 µM) | 250 (≈ 173 µM) | 250 (≈ 173 µM) |
| CN(C)c1ccc(C(=C2C=CC(=[N+](C)C)C=C2)c2ccc(N(C)C)cc2)cc1.[Cl-] [GENTIAN VIOLET] | – | – | – | 4 | – | – | 1 | 12.5 | 3.12 | 6.25 | 12.5 | 12.5 |
| Nc1ccc(S(=O)(=O)Nc2nccs2)cc1 [SULFATHIAZOLE] | – | – | – | 4 | – | – | 1 | 2500 (≈ 9790 µM) | 625 (≈ 2450 µM) | 1250 (≈ 4900 µM) | 2500 (≈ 9790 µM) | 2500 (≈ 9790 µM) |
| O=P1(N(CCCl)CCCl)NCCCO1 (centres undefined) [CYCLOPHOSPHAMIDE ANHYDROUS] | – | – | – | 1 | – | – | 2 | 4000 (≈ 15300 µM) | 4000 (≈ 15300 µM) | 2000 (≈ 7660 µM) | 2000 (≈ 7660 µM) | 2000 (≈ 7660 µM) |
| C[C@@H]1C[C@@H]([C@H](O)CC2CC(=O)NC(=O)C2)C(=O)[C@@H](C)C1 [CYCLOHEXIMIDE] | – | – | – | 2 | – | – | 1 | 500 (≈ 1780 µM) | 250 (≈ 889 µM) | 500 (≈ 1780 µM) | 500 (≈ 1780 µM) | 500 (≈ 1780 µM) |
| CC(C)(O/N=C(\C(=O)N[C@@H]1C(=O)N2C(C(=O)[O-])=C(C[n+]3ccccc3)CS[C@H]12)c1csc(N)n1)C(=O)O [CEFTAZIDIME] | – | – | – | 16 | – | – | 8 | 250 (≈ 457 µM) | 15.6 (≈ 28.5 µM) | 7.8 (≈ 14.3 µM) | 31.2 (≈ 57.1 µM) | 31.2 (≈ 57.1 µM) |
| CCC[C@@H]1C[C@@H](C(=O)N[C@@H]([C@H]2O[C@H](SC)[C@H](O)[C@@H](O)[C@H]2O)[C@@H](C)O)N(C)C1 [LINCOMYCIN] | – | – | – | 4 | – | – | 1 | 100 (≈ 246 µM) | 25 (≈ 61.5 µM) | 25 (≈ 61.5 µM) | 100 (≈ 246 µM) | 50 (≈ 123 µM) |
| CCCCc1ccc(C(=O)O)nc1 [FUSARIC ACID] | – | – | – | 2 | – | – | 2 | 100 (≈ 558 µM) | 50 (≈ 279 µM) | 50 (≈ 279 µM) | 50 (≈ 279 µM) | 100 (≈ 558 µM) |
| CN(C)c1ccc2cc3ccc(N(C)C)cc3nc2c1 [ACRIDINE ORANGE] | – | – | – | 128 | – | – | 1 | 30 (≈ 113 µM) | 0.234 (≈ 0.882 µM) | 15 (≈ 56.5 µM) | 30 (≈ 113 µM) | 30 (≈ 113 µM) |
| CCn1cc(C(=O)O)c(=O)c2ccc(C)nc21 [NALIDIXIC ACID] | – | – | – | 1 | – | – | 1 | 25 (≈ 108 µM) | 25 (≈ 108 µM) | 25 (≈ 108 µM) | 25 (≈ 108 µM) | 12.5 (≈ 53.8 µM) |
| CO[C@H]1/C=C/O[C@@]2(C)Oc3c(C)c(O)c4c(O)c(c(/C=N/N5CCN(C)CC5)c(O)c4c3C2=O)NC(=O)/C(C)=C\C=C\[C@H](C)[C@H](O)[C@@H](C)[C@@H](O)[C@@H](C)[C@H](OC(C)=O)[C@@H]1C [RIFAMPIN] | – | – | – | 512 | – | – | 64 | 50 (≈ 60.8 µM) | 0.1 (≈ 0.122 µM) | 0.2 (≈ 0.243 µM) | 0.78 (≈ 0.948 µM) | 0.78 (≈ 0.948 µM) |
| CC[n+]1c(-c2ccccc2)c2cc(N)ccc2c2ccc(N)cc21.[Br-] [HOMIDIUM BROMIDE] | – | – | – | 4 | – | – | 2 | 20 | 5 | 10 | 10 | 10 |
| NEOMYCIN SULFATE | 125 | 125 | 125 | 1 | 1000 | 500 | 0.125 | – | – | – | – | – |
| CC[C@H]1OC(=O)[C@H](C)[C@@H](O[C@H]2C[C@@](C)(OC)[C@@H](O)[C@H](C)O2)[C@H](C)[C@@H](O[C@@H]2O[C@H](C)C[C@H](N(C)C)[C@H]2O)[C@](C)(O)C[C@@H](C)C(=O)[C@H](C)[C@@H](O)[C@]1(C)O [ERYTHROMYCIN] | – | – | – | 8 | – | – | 2 | 3.8 (≈ 5.18 µM) | 0.47 (≈ 0.64 µM) | 1.88 (≈ 2.56 µM) | 1.88 (≈ 2.56 µM) | 1.88 (≈ 2.56 µM) |
| O=C(N[C@H](CO)[C@H](O)c1ccc([N+](=O)[O-])cc1)C(Cl)Cl [CHLORAMPHENICOL] | – | – | – | 2 | – | – | 1 | 1 (≈ 3.09 µM) | 0.5 (≈ 1.55 µM) | 1 (≈ 3.09 µM) | 1 (≈ 3.09 µM) | 1 (≈ 3.09 µM) |
| O[C@@H](CS)[C@@H](O)CS [DITHIOTHREITOL] | – | – | – | 2 | – | – | 2 | 4000 (≈ 25900 µM) | 2000 (≈ 13000 µM) | 2000 (≈ 13000 µM) | 2000 (≈ 13000 µM) | 4000 (≈ 25900 µM) |

— ChEMBL document CHEMBL1275542, “Characterization of TolC efflux pump proteins from Pasteurella multocida” (2008)
